Tests used:
[1] = reported; antidiarrheal use; cited from earlier work
itch = settings: cited from earlier work
[2] = tested on: Compound 48/80-induced scratching; assay: Anti-pruritic activity, mouse scratch model (Compound 48/80-induced scratching); assay type: in vivo, mouse (male Swiss albino); settings: s.c.; for antagonism of Compound 48/80-induced scratching (in words): dose-related; for Mean % Inhibition of Scratching: Compound 48/80 challenge, 30 min
Protocol: Testing was performed in a mouse scratch model under blind conditions.
Groups of 8-10 male Swiss albino mice (Hilltop Lab Animals, Inc., Scottsdale, Pa.), weighing […], were used in the testing. They were housed under controlled temperature of 23-25° C. Food and water were freely available. Before the experiments, the mice were weighed, put into individual boxes and allowed to acclimate for 30 min.
Vehicle used to dissolve the test compounds: 20% w/w cremophor EL.
[…] of the vehicle (3-5 doses, n-8-10) was injected s.c. into the back of the neck of mice 20 min. before challenging them with 100 μl of Compound 48/80 (2 mg/ml; 50 μg) injected s.c. into the back of the neck.
To each mouse of a group of 8-10 mice previously subjected to the standard challenge various doses of the compounds, to be tested for anti-pruritic activity, were administered s.c. into the back of the neck.
For each group of 8-10 mice, the mean values for scratching were normalized to relative % antagonism of scratching and then plotted vs. dose of test compounds. Interval estimates of mean A50 were determined by nonlinear regression analysis (Kalcida Graph) and mean % inhibition of scratching was calculated.

[3] = tested on: warm water induced tail withdrawal reflex / castor oil diarrhea; settings: po
Text: Peripheral selectivity is defined by the ratio of the ED50 in the tail-withdrawal assay over the ED50 in the anti-diarrheal assay.
Measure of Centrally-Mediated Opiod Analgesia by the Tail-Withdrawal Assay (Janssen, P. A. J.; Niemegeers, C. J. E.; Dony, J. G. H., The Inhibitory effect of Fentanyl and other morphine-like analgesics on the warm water induced tail withdrawal reflex in rats. Arzneimittel-Forschung 1963, 13, 502-507.)
Young female Wistar rats (170-210 g body weight) are used only once. […] Around 8:30 AM the "normal" reaction time of each rat is determined by immersing the lower 5 cm portion of the tail in a cup freshly filled with water from a large constant temperature (55° C.) bath until the typical tail withdrawal response is observed. […] The reaction time is measured in 0.5 second units with a stopwatch. […] Periodically thereafter (i.e., 1/4, 1/2, 1, 2, 3, 4, 5 and 6 hours after dosage) the reaction time is again measured by trained technicians unaware of the nature of the compounds. Results of these studies are expressed as ED50 concentration values (mg/kg), calculated as the dose producing a tail withdrawal latency equal to half the difference between the maximum latency (≤15 seconds) and the baseline latency (6 to 8 seconds). […]

Q: Which “CNS effects (in words)” value [1] does the source give for `CN(C)C(=O)C(CCN1CCC(O)(c2ccc(Cl)cc2)CC1)(c1ccccc1)c1ccccc1.Cl` [Example 2, 4-(p-Chlorophenyl)-4-hydroxy-N,N-dimethyl-α,α-diphenylpiperidine-1-butyramide hydrochloride] here?
A: completely free of the undesirable CNS effects

Q: For `NCCc1c[nH]cn1` [histamine], which “induction of itch (in words)” value (itch; humans / application to skin) is on record?
A: produces itch but not pain

Q: What does the source list for `CN(C)C(=O)C(CCN1CCC(O)(c2ccc(Cl)cc2)CC1)(c1ccccc1)c1ccccc1` [Compound 6, 4-(p-Chlorophenyl)-4-hydroxy-N,N-dimethyl-α,α-diphenyl-1-piperidinebutyramide]?
A: CNS effects (in words) [1]: devoid of CNS effects; antagonism of Compound 48/80-induced scratching (in words) [2]: antagonized Compound 48/80-induced scratching in a dose-related manner

Q: Which “inhibition of itch in atopic dermatitis (in words)” value (itch; atopic dermatitis) does the source give for cyclosporin A here?
A: itch is not inhibited by antihistamines, but by cyclosporin A

Q: With `CN1CC[C@]23c4c5ccc(O)c4O[C@H]2[C@@H](O)C=C[C@H]3[C@H]1C5` [morphine] as the compound, how does the “generalized itching, incidence” value (itch; i.v.) read?
A: about 1 % of patients

Q: For `O=C(N1CCCC1)C(CCN1CCC(O)(c2ccc(Cl)c(Cl)c2)CC1)(c1ccccc1)c1ccccc1` [Compound 4], which “Peripheral Selectivity (ED50tw /ED50 Castor Oil)” value [3] is on record?
A: > 640

Q: With `O=C(N1CCCCC1)C(CCN1CCC(O)(c2ccccc2)CC1)(c1ccccc1)c1ccccc1` [Compound 1, 1-[4-(4-Hydroxy-4-phenyl-1-piperidino)-2,2-diphenylbutyryl]piperidine] as the compound, how does the “Mean % Inhibition of Scratching” value ([2]; 2.5 mg/kg) read?
A: 32%

Q: And the “Mean % Inhibition of Scratching” value ([2]; 5.0 mg/kg)?
A: 65%

Q: And the “Mean % Inhibition of Scratching” value ([2]; 10.0 mg/kg)?
A: 83%

Q: What about the “antagonism of Compound 48/80-induced scratching (in words)” value [2] of the same compound?
A: antagonized Compound 48/80-induced scratching in a dose-related manner

Q: With `CN(C)C(=O)C(CCN1CCC(O)(c2ccc(Br)cc2)CC1)(c1ccccc1)c1ccccc1` [Compound 3, 4-(p-Bromophenyl)-4-hydroxy-N,N-dimethyl-α,α-diphenyl-1-piperidinebutyramide] as the compound, how does the “antagonism of Compound 48/80-induced scratching (in words)” value [2] read?
A: antagonized Compound 48/80-induced scratching in a dose-related manner

From patent publication US5798093A (priority 1997, dated 1998)
